From patent US8999966B2, “Compounds that are ERK inhibitors” (Merck Sharp & Dohme Corp., priority 2010, dated 2015)

Molecular target: fully phosphorylated, active Mouse ERK2 protein (Mus musculus, UniProt P63085)
Assay: Active ERK2 assay (AERK2), IMAP format
Type: biochemical
Settings: activated ERK2, IMAP fluorescence polarization, 30 μM ATP
Method: 14 μl of kinase buffer (10 mM Tris.HCl pH 7.2, 10 mM MgCl2, 0.01% Tween-20, 1 mM DTT) containing 0.4 ng unphosphorylated Mouse ERK2 protein can be added to each well of a black 384-well assay plate. […] DMSO concentration during initial incubation is 6.7%. ERK2 activity can be determined to be insensitive to DMSO concentrations up to 20%. ERK2 can then be activated and it's kinase activity can be measured by the addition of 10 μl kinase buffer with the following components (final concentration per reaction): 2 ng active (phosphorylated) human MEK1 protein and 4 μM (total) ERK2 IMAP substrate peptides (3.9 μM unlabeled IPTTPITTTYFFFK-CONH2 and 100 nM IPTTPITTTYFFFK(5-carboxyfluorescein)-CONH2) and 30 μM ATP. DMSO concentration during ERK activation can be 4%. After one hour, reactions can be terminated by addition of 60 μl IMAP detections beads in binding buffer (Molecular Devices). Binding can be allowed to equilibrate for 30 minutes before reading the plate on an LJL Analyst Fluorescence Polarization plate reader. […] Active compounds can be reconfirmed in an independent assay.
Activated ERK2 activity was also determined in the IMAP assay format using the procedure outlined above. 1 μl of 25× compound was added to 14 μl of kinase buffer containing 0.25 ng fully phosphorylated, active Mouse ERK2 protein. Following a 30 minute incubation, the reactions were initiated by addition of 10 μl of kinase buffer containing 1 μM ERK2 IMAP substrate peptide (0.9 μM unlabeled IPTTPITTTYFFFK-CONH2 and 100 nM IPTTPITTTYFFFK(5-carboxyfluorescein)-CONH2) and 30 μM ATP. Reactions proceeded for 30 minutes before termination by addition of 60 μl IMAP detection beads in binding buffer. Plates were read as above after 30 minute binding equilibration. Active compounds were reconfirmed in an independent assay.

fully phosphorylated, active Mouse ERK2 protein, sequence (P63085 whole entry): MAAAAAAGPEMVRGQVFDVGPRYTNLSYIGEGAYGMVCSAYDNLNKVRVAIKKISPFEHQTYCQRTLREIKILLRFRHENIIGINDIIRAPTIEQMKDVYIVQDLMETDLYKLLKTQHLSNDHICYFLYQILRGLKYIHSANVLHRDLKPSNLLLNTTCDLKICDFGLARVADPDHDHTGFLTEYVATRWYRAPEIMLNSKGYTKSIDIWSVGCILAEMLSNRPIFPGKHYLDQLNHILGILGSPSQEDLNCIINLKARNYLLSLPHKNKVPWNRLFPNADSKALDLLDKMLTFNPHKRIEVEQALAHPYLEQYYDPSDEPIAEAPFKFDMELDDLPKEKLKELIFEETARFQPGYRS

| Structure (SMILES) | IC50 |
| --- | --- |
| Cn1c(CN2CCC[C@@H](c3nnc(-c4ccc5[nH]nc(-c6ccc7nccn7c6)c5c4)o3)C2)cc2ccccc21 [Example 329, 3-IMIDAZO[1,2-a]PYRIDIN-6- YL-5-[5-[1-[(1-METHYL-1H- INDOL-2-YL)METHYL]-3(R)- PIPERIDINYL]-1,3,4- OXADIAZOL-2-YL]-1H- INDAZOLE] | > 1 µM |
| COc1cccc(F)c1CN1CCC[C@@H](c2nnc(-c3ccc4[nH]nc(-c5ccnc(C)c5)c4c3)o2)C1 [Example 336, 5-[5-[1-[(2-FLUORO-6- METHOXYPHENYL)METHYL]- 3(R)-PIPERIDINYL]-1,3,4- OXADIAZOL-2-YL]-3-(2- METHYL-4-PYRIDINYL)-1H- INDAZOLE] | 0.0003 to 0.0104 µM |
| CCn1cc(-c2n[nH]c3ccc(-c4nnc([C@@H]5CCCN(Cc6csc7ccccc67)C5)o4)cc23)cn1 [Example 339, 5-[5-[1-(BENZO[b]THIEN-3- YLMETHYL)-3(R)- PIPERIDINYL]-1,3,4- OXADIAZOL-2-YL]-3-(1- ETHYL-1H-PYRAZOL-4-YL)- 1H-INDAZOLE] | > 1 µM |
| CCn1cc(-c2n[nH]c3ccc(-c4nnc([C@@H]5CCCN(Cc6cn(C)c7ccccc67)C5)o4)cc23)cn1 [Example 341, 3-(1-ETHYL-1H-PYRAZOL-4- YL)-5-[5-[1-[(1-METHYL-1H- INDOL-3-YL)METHYL]-3(R)- PIPERIDINYL]-1,3,4- OXADIAZOL-2-YL]-1H- INDAZOLE] | > 1 µM |
| CCn1cc(-c2n[nH]c3ccc(-c4nnc([C@@H]5CCCN(Cc6cc7ccccc7n6C)C5)o4)cc23)cn1 [Example 342, 3-(1-ETHYL-1H-PYRAZOL-4- YL)-5-[5-[1-[(1-METHYL-1H- INDOL-2-YL)METHYL]-3(R)- PIPERIDINYL]-1,3,4- OXADIAZOL-2-YL]-1H- INDAZOLE] | > 1 µM |
| CCn1cc(-c2n[nH]c3ccc(-c4nnc([C@@H]5CCCN(Cc6cc(F)c(Cl)cc6Cl)C5)o4)cc23)cn1 [Example 345, 5-[5-[1-[(2,4-DICHLORO-5- FLUOROPHENYL)METHYL]- 3(R)-PIPERIDINYL]-1,3,4- OXADIAZOL-2-YL]-3-(1- ETHYL-1H-PYRAZOL-4-YL)- 1H-INDAZOLE] | > 1 µM |
| Fc1ccccc1CN1CCC[C@@H](c2nnc(-c3ccc4[nH]nc(-c5ccc6occc6c5)c4c3)o2)C1 [Example 347, 3-(5-BENZOFURANYL)-5-[5- [1-[(2- FLUOROPHENYL)METHYL]- 3(R)-PIPERIDINYL]-1,3,4- OXADIAZOL-2-YL]-1H- INDAZOLE] | ≥ 0.504 µM |
| Fc1cccc(F)c1CN1CCC[C@@H](c2nnc(-c3ccc4[nH]nc(-c5ccc6occc6c5)c4c3)o2)C1 [Example 348, 3-(5-BENZOFURANYL)-5-[5- [1-[(2,6- DIFLUOROPHENYL)METHYL]- 3(R)-PIPERIDINYL]-1,3,4- OXADIAZOL-2-YL]-1H- INDAZOLE] | > 1 µM |
| COc1cccc(F)c1CN1CCC[C@@H](c2nnc(-c3ccc4[nH]nc(-c5ccc6occc6c5)c4c3)o2)C1 [Example 349, 3-(5-BENZOFURANYL)-5-[5- [1-[(2-FLUORO-6- METHOXYPHENYL)METHYL]- 3(R)-PIPERIDINYL]-1,3,4- OXADIAZOL-2-YL]-1H- INDAZOLE] | ≥ 0.504 µM |
| c1ccc2oc(CN3CCC[C@@H](c4nnc(-c5ccc6[nH]nc(-c7ccc8occc8c7)c6c5)o4)C3)cc2c1 [Example 350, 3-(5-BENZOFURANYL)-5-[5- [1-(2- BENZOFURANYLMETHYL)- 3(R)-PIPERIDINYL]-1,3,4- OXADIAZOL-2-YL]-1H- INDAZOLE] | > 1 µM |
| c1cc(CN2CCC[C@@H](c3nnc(-c4ccc5[nH]nc(-c6ccc7occc7c6)c5c4)o3)C2)ncn1 [Example 351, 3-(5-BENZOFURANYL)-5-[5- [1-(4- PYRIMIDINYLMETHYL)- 3(R)-PIPERIDINYL]-1,3,4- OXADIAZOL-2-YL]-1H- INDAZOLE] | > 1 µM |
| c1cc2cc(-c3n[nH]c4ccc(-c5nnc([C@@H]6CCCN(CC7CCCCC7)C6)o5)cc34)ccc2o1 [Example 352, 3-(5-BENZOFURANYL)-5-[5- [1-(CYCLOHEXYLMETHYL)- 3(R)-PIPERIDINYL]-1,3,4- OXADIAZOL-2-YL]-1H- INDAZOLE] | > 1 µM |
| Fc1ccccc1CN1CCC[C@@H](c2nnc(-c3ccc4[nH]nc(-c5ccnc(Cl)c5)c4c3)o2)C1 [Example 353, 3-(2-CHLORO-4-PYRIDINYL)- 5-[5-[1-[(2- FLUOROPHENYL)METHYL]- 3(R)-PIPERIDINYL]-1,3,4- OXADIAZOL-2-YL]-1H- INDAZOLE] | ≥ 0.504 µM |
| Clc1cc(-c2n[nH]c3ccc(-c4nnc([C@@H]5CCCN(Cc6csc7ccccc67)C5)o4)cc23)ccn1 [Example 354, 5-[5-[1-(BENZO[b]THIEN-3- YLMETHYL)-3(R)- PIPERIDINYL]-1,3,4- OXADIAZOL-2-YL]-3-(2- CHLORO-4-PYRIDINYL)-1H- INDAZOLE] | > 1 µM |
| Clc1cc(-c2n[nH]c3ccc(-c4nnc([C@@H]5CCCN(Cc6cc7ccccc7o6)C5)o4)cc23)ccn1 [Example 357, 5-[5-[1-(2- BENZOFURANYLMETHYL)- 3(R)-PIPERIDINYL]-1,3,4- OXADIAZOL-2-YL]-3-(2- CHLORO-4-PYRIDINYL)-1H- INDAZOLE] | ≥ 0.504 µM |

Results, then the compound that gave them:

| IC50 | Structure (SMILES) |
| --- | --- |
| ≥ 0.504 µM | Fc1cc(CN2CCC[C@@H](c3nnc(-c4ccc5[nH]nc(-c6ccnc(Cl)c6)c5c4)o3)C2)c(Cl)cc1Cl [Example 358, 3-(2-CHLORO-4-PYRIDINYL)- 5-[5-[1-[(2,4-DICHLORO-5- FLUOROPHENYL)METHYL]- 3(R)-PIPERIDINYL]-1,3,4- OXADIAZOL-2-YL]-1H- INDAZOLE] |
| ≥ 0.504 µM | Clc1cc(-c2n[nH]c3ccc(-c4nnc([C@@H]5CCCN(Cc6cc7ccccc7s6)C5)o4)cc23)ccn1 [Example 359, 5-[5-[1-(BENZO[b]THIEN-2- YLMETHYL)-3(R)- PIPERIDINYL]-1,3,4- OXADIAZOL-2-YL]-3-(2- CHLORO-4-PYRIDINYL)-1H- INDAZOLE] |
| ≥ 0.504 µM | Clc1cc(-c2n[nH]c3ccc(-c4nnc([C@@H]5CCCN(Cc6ccncn6)C5)o4)cc23)ccn1 [Example 360, 3-(2-CHLORO-4-PYRIDINYL)- 5-[5-[1-(4- PYRIMIDINYLMETHYL)- 3(R)-PIPERIDINYL]-1,3,4- OXADIAZOL-2-YL]-1H- INDAZOLE] |
| ≥ 0.504 µM | COc1cccc(CN2CCC[C@@H](c3nnc(-c4ccc5[nH]nc(-c6ccnc(Cl)c6)c5c4)o3)C2)n1 [Example 361, 3-(2-CHLORO-4-PYRIDINYL)- 5-[5-[1-[(6-METHOXY-2- PYRIDINYL)METHYL]-3(R)- PIPERIDINYL]-1,3,4- OXADIAZOL-2-YL]-1H- INDAZOLE] |
| ≥ 0.504 µM | Clc1cc(-c2n[nH]c3ccc(-c4nnc([C@@H]5CCCN(CC6CCCCC6)C5)o4)cc23)ccn1 [Example 362, 3-(2-CHLORO-4-PYRIDINYL)- 5-[5-[1- (CYCLOHEXYLMETHYL)- 3(R)-PIPERIDINYL]-1,3,4- OXADIAZOL-2-YL]-1H- INDAZOLE] |
| > 1 µM | Fc1cccc(F)c1CN1CCCC(c2ccn(-c3ccc4[nH]nc(-c5ccncc5)c4c3)n2)C1 (stereo not shown) [Example 367, 5-[3-[1-[(2,6- DIFLUOROPHENYL)METHYL]- 3-PIPERIDINYL]-1H- PYRAZOL-1-YL]-3-(4- PYRIDINYL)-1H-INDAZOLE] |
| > 1 µM | COc1cccc(F)c1CN1CCCC(c2ccn(-c3ccc4[nH]nc(-c5ccncc5)c4c3)n2)C1 (stereo not shown) [Example 368, 5-[3-[1-[(2-FLUORO-6- METHOXYPHENYL)METHYL]- 3-PIPERIDINYL]-1H- PYRAZOL-1-YL]-3-(4- PYRIDINYL)-1H-INDAZOLE] |
